Test results: PubChem BioAssay (NCI)
Where “and” joins values, the source holds several entries; their conditions need not be identical. Equal values may be shown once.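 1) Cells in 96-well plates. 2) Compound, 48 h, 5 concentrations. 3) Linear interpolation between surrounding doses. 4) Unreached endpoint = highest concentration. GI50: concentration for 50% inhibition of growth. TGI: concentration producing complete growth inhibition.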

Tests used:
Assay in all cases: NCI-60 cell line screen, 48 h
[1] = system: 786-0 renal
[2] = system: ACHN renal
[3] = system: HT29 colon
[4] = system: KM12 colon
[5] = system: MALME-3M melanoma
[6] = system: MDA-MB-435
[7] = system: MOLT-4 leukemia
[8] = system: OVCAR-8 ovarian
[9] = system: SK-MEL-28 melanoma
[10] = system: TK-10 renal

| SMILES | GI50 [1] [nM] | TGI [1] | GI50 [2] [µM] | TGI [2] | GI50 [3] [µM] | TGI [3] | GI50 [4] [nM] | TGI [4] | GI50 [5] [nM] | TGI [5] | GI50 [6] [nM] | TGI [6] | GI50 [7] [nM] | TGI [7] | GI50 [8] [µM] | TGI [8] | GI50 [9] [µM] | TGI [9] | GI50 [10] [µM] | TGI [10] |
| --- | --- | --- | --- | --- | --- | --- | --- | --- | --- | --- | --- | --- | --- | --- | --- | --- | --- | --- | --- | --- |
| COc1cc2nc(-c3cnc(N(C)C)nc3)nc(NC3CCN(Cc4ccccc4)CC3)c2cc1OC | 1800 | 3.81 µM | 0.927 | 2.17 µM | 1.08 | 2.54 µM | 1720 | 3.53 µM | 1660 | 3.42 µM | 1380 | 2.81 µM | 2280 | 6.36 µM | 1.68 | 3.97 µM | 1.83 | 3.58 µM | 1.63 | 3.08 µM |
| Cc1cc(N2CCCCC2)nc(N(CCCNc2ccnc3cc(Cl)ccc23)Cc2ccco2)n1 | 1610 | 3.27 µM | 3.3 | 12 µM | 1.2 | 4.95 µM | 2820 | 11.1 µM | 2030 | 3.68 µM | 1650 | 3.68 µM | 2450 | 7.18 µM | 2.24 | 5.18 µM | 1.62 | 3.28 µM | 2.63 | 8.12 µM |
| O=c1c2cccc(Cl)c2sc2c(NCCCNCCO)nc3ccccc3c12 | 1690 | 3.52 µM | 1.44 | 2.8 µM | 1.68 | 3.37 µM | 1870 | 3.73 µM | 1610 | 3.15 µM | 1820 | 3.55 µM | 2120 | 5.19 µM | 2.91 | 11.9 µM | 1.85 | 3.54 µM | 3.07 | 7.69 µM |
| CCN(CC)CCCC(C)Nc1cnc(C(=O)Nc2ccc(Cl)c3cccnc23)cn1 (centres undefined) | 1400 | 2.87 µM | 1.73 | 3.31 µM | 1.33 | 3.26 µM | 3790 | 13.3 µM | 1820 | 3.3 µM | 1810 | 3.43 µM | 1330 | 3.3 µM | 3.17 | 10 µM | 1.79 | 3.28 µM | 9.09 | 21.9 µM |
| COc1cc2c3c(n(CCCCOC(=O)C(F)(F)F)c(=O)c2cc1OC)-c1cc2c(cc1C3=O)OCO2 | 982 | 7.65 µM | > 48.3 | > 100 µM | > 100 | > 100 µM | > 100000 | > 100 µM | > 100000 | > 100 µM | > 100000 | > 100 µM | 10100 | > 77.3 µM | > 52.6 | > 100 µM | > 100 | > 100 µM | > 100 | > 100 µM |
| CC(=O)N1N=C2/C(=C/c3ccccc3)CC(C)CC2C1c1ccccc1 (centres undefined) | 17700 | 34.8 µM | 13 | 26.8 µM | 12.9 | 29.9 µM | 12400 | 33.9 µM | 18000 | 37.4 µM | 11200 | 27.7 µM | 8720 | 28.1 µM | 16.1 | 50.6 µM | 18.5 | 36.5 µM | 19.7 | 44.9 µM |
| Oc1ccc2cc(Br)ccc2c1-c1c(O)ccc2cc(Br)ccc12 | 2380 | 4.64 µM | 3.02 | 11.3 µM | 1.75 | 3.34 µM | 2930 | 10.4 µM | 2190 | 6.05 µM | 3040 | 11.2 µM | 2830 | 11 µM | 3.9 | 15.4 µM | 3.68 | 13.1 µM | 2.52 | 5.86 µM |
| O=C1NN(c2ccc(C(=O)O)cc2)C(=O)/C1=C\c1ccc([N+](=O)[O-])o1 | > 100000 | > 100 µM | 24.4 | 55.3 µM | 18.6 | 35.8 µM | > 100000 | > 100 µM | 20700 | 41.2 µM | 32100 | > 100 µM | 33400 | > 100 µM | 51.1 | > 100 µM | > 100 | > 100 µM | 25.5 | 66.8 µM |
| COC(=O)NC1C(C)OC(OC2C/C=C(/C)C3C=CC4C(OC5CC(OC6CC(O)C(OC7CC(O)C(OC)C(C)O7)C(C)O6)C(O)C(C)O5)C(C)CC(C)C4C3(C)/C(O)=C3\C(=O)OC4(CC(C)C(CO)=CC4/C=C\2C)C3=O)CC1(C)[N+](=O)[O-] (centres undefined) | 16800 | 21.9 µM and 32.3 µM | 14.8 | 35.5 µM and 30.6 µM | 8.34 | 15.9 µM and 35.9 µM | 9150 | 16.6 µM and 25.2 µM | 8880 | 15.8 µM and 17.8 µM | – | 17 µM | 18200 | 50 µM and 20.2 µM | – | 20.7 µM and 32.3 µM | 9 | 16.6 µM and 36 µM | 25.8 | 32.5 µM and 81.2 µM |
| CC[C@@H](C(=O)[C@@H](C)[C@@H](O)[C@H](C)[C@@H]1O[C@@H]([C@@H](CC)C(=O)O)CC[C@@H]1C)C1O[C@]2(C=CC(=O)[C@]3(CC[C@@](C)([C@H]4CC[C@](O)(CC)[C@H](C)O4)O3)O2)[C@H](C)C[C@@H]1C (some centres undefined) | 987 | 14.5 µM | 1.33 | 14.9 µM | 0.279 | 16.2 µM | 515 | 6 µM | 163 | 0.774 µM | 1210 | 2.8 µM | 1420 | 6.3 µM | 1.73 | > 45.2 µM | 1.26 | 2.53 µM | 2.08 | 25.8 µM |
| COc1ccc(N(CC(=O)NCCC[Te]c2ccccc2)C(=O)c2ccccc2)cc1 | 5090 | 19.6 µM | 3.17 | 9.6 µM | 3.84 | > 100 µM | 3130 | 11.9 µM | 16700 | 34.7 µM | 8060 | 30.2 µM | 3510 | 17.5 µM | 3.03 | 8.12 µM | 4.33 | 15.6 µM | 3.85 | 11.4 µM |
| COC(=O)Nc1nc2ccc(Oc3ccc(NC(=O)Nc4cccc(C(=O)O)c4)cc3)cc2[nH]1 | 10500 | > 25 µM | 16.9 | > 25 µM | 7.35 | > 25 µM | 5260 | > 21.2 µM | 7920 | > 25 µM | 1320 | 6.03 µM | 9990 | > 25 µM | 9.4 | > 25 µM | 10 | > 25 µM | > 23.1 | > 25 µM |
| CC1=C[C@H]2c3c(c(O)c(O)c4oc5c(C)cccc5c(=O)c34)[C@H](c3cc(O)c(O)c4oc5c(C)cccc5c(=O)c34)[C@H]2C(C)(C)C1 | 2850 | 9.29 µM | 2.31 | 10.7 µM | 2.12 | 8.92 µM | 2560 | 8.33 µM | 2430 | 10.7 µM | 1630 | 3.87 µM | 1060 | 31 µM | 1.7 | 17.4 µM | 1.6 | 4.18 µM | 2.51 | 11.7 µM |
| COc1cc2nc3sc(C(=O)Nc4ccc(C(=O)OC(C)C)cc4)c(C(=O)Nc4ccc(Cl)cc4C)n3c(=O)c2cc1OC | 5170 | 28 µM | 23.8 | > 100 µM | 3.18 | > 100 µM | 1290 | 13.3 µM | 69.1 | 2.44 µM | 9110 | > 100 µM | 2870 | 18.9 µM | 12.6 | > 100 µM | 46.2 | > 100 µM | 2.45 | 12.7 µM |
| c1ccc(Cn2cc3c(c2-c2ccccc2)CCc2cnoc2-3)cc1 | 6700 | 69.1 µM | 9.36 | > 100 µM | 3.11 | 33.4 µM | 3270 | 47 µM | 3130 | 30.1 µM | 1890 | 7.18 µM | 2190 | 6.98 µM | 8.05 | > 100 µM | 6.58 | > 100 µM | 8.22 | > 100 µM |
| CCC(C)(C)C(=O)O[C@H]1C[C@@H](C)C=C2C=C[C@H](C)[C@H](CC[C@@H]3C[C@@H](O)CC(=O)O3)[C@H]21 | 3130 | 11.2 µM and > 30 µM | 0.882 | 10.3 µM and 2.38 µM | – | 20.2 µM and 21.3 µM | 11200 | 24.1 µM and > 30 µM | 13900 | 30.5 µM | 8030 | 21 µM | 14600 | 31.7 µM and > 30 µM | – | 18.2 µM and 20.6 µM | 5.05 | 18.8 µM and > 30 µM | 5.38 | 18.2 µM |
| CC1=NN(c2ccccc2)C(=O)C1N=Nc1ccc([As](=O)(O)O)c(O)c1 (centres undefined) | – | > 100 µM | – | > 100 µM | – | > 100 µM | – | > 100 µM | – | > 100 µM | – | > 100 µM | – | > 100 µM | – | > 100 µM | – | > 100 µM | – | > 100 µM |
| Cn1cc(-c2nc(-c3c[nH]c4ncccc34)cs2)c2cc(F)ccc21 | 2820 | 7.64 µM | 3.21 | 14.7 µM | 2.1 | 4.53 µM | 830 | 5.16 µM | 2730 | 13.4 µM | 1120 | 4.88 µM | 3160 | 17 µM | 2.96 | > 25.3 µM | 4.75 | 16.9 µM | 2.78 | 15.3 µM |
| O=c1cc(-c2cccc(C(F)(F)F)c2)[nH]c2cc3c(cc12)OCO3 | 902 | 7.91 µM and 27 µM | 30.5 | 50 µM and > 100 µM | 3.11 | 40.8 µM and 13 µM | 486 | 13 µM and > 100 µM | – | > 100 µM | 175 | 1.95 µM and 0.366 µM | 338 | 50 µM and > 100 µM | 0.482 | 21.5 µM and 18.5 µM | 0.455 | 50 µM and 53.9 µM | 22.5 | > 100 µM |
| CCOc1cccc(/C=N/NC(=O)c2ccc(Nc3ccnc(C(F)(F)F)c3)cc2)c1O | 951 | > 94.3 µM | 0.728 | > 79.1 µM | 4.38 | > 73.5 µM | 1620 | > 58.4 µM | 2290 | > 47.8 µM | 6190 | > 100 µM | 244 | – | 0.599 | > 72.5 µM | 1.63 | > 58.5 µM | 2.48 | > 100 µM |
| O=C1CC(c2ccc(N3CCOCC3)cc2)(c2ccsc2)NC(=O)C1Sc1ccccc1Cl (centres undefined) | 6530 | > 100 µM | 47.4 | > 100 µM | 46.4 | > 100 µM | 43700 | > 100 µM | > 100000 | > 100 µM | 88600 | > 100 µM | 46900 | > 100 µM | 7.68 | > 100 µM | 38.4 | > 100 µM | > 100 | > 100 µM |
| C[n+]1c(/C=C\c2ccc(Cl)cc2)ccc2ccccc21 | > 100000 | > 100 µM | 81.6 | > 100 µM | 19.4 | > 100 µM | 3600 | 15 µM | 11900 | 36.8 µM | 21500 | 66.4 µM | > 100000 | > 100 µM | 6.82 | 91.1 µM | 13.6 | 54.3 µM | > 100 | > 100 µM |
| Cn1cncc1[C@@](N)(c1ccc(Cl)cc1)c1ccc2c(c1)c(-c1cccc(Cl)c1)cc(=O)n2C | 3080 | 14 µM | 3.05 | 14.9 µM | 1.27 | 6.24 µM | 1180 | 7.02 µM | 901 | 12.1 µM | 172 | 1.93 µM | 2330 | 7.97 µM | 2.78 | 14.8 µM | 2.8 | 14.7 µM | 2.57 | 10.8 µM |
| Cc1nc(Cl)nc(Cl)c1C | – | > 100 µM | – | > 100 µM | – | > 100 µM | – | > 100 µM | – | > 100 µM | – | > 100 µM | – | > 100 µM | – | > 100 µM | – | > 100 µM | – | > 100 µM |
